Data published in the supplement of paper PMC6723410.

What follows are molecules tested on GUMC-403 (assay: viability at highest tested concentration (max response) relative to DMSO (% of DMSO control); higher = less cytotoxic). Details: library / dose series: MIPE library, 11-point 1:3 dilution; top concentration 23 µM; 48 h.
Procedure, shortened: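 The value is viability at the highest tested concentration, expressed relative to vehicle control. Patient-derived GUMC-403 papilloma cells, grown by conditional reprogramming, were seeded at 700/well in 5 μL F + Y medium in 1536-well plates. After an overnight incubation at 37 °C, they received 23 nL of compound by pin tool for 48 h. Readout was CellTiter-Glo luminescence on a ViewLux, normalised to vehicle wells (100%) and empty wells (0%).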
Cc1ccc([S+](=O)([O-])Nc2nc3ccccc3nc2Nc2ccc3nsnc3c2)cc1 gave a viability of 66.3.

Same assay, conditions: library / dose series: MIPE library, 11-point 1:3 dilution; top concentration 46.1 µM; 48 h
In the case of Cc1onc(-c2ccccc2Cl)c1C(=O)N[C@@H]1C(=O)N2[C@@H]1SC(C)(C)[C@@H]2C(=O)[O-], the viability is reported as 111. COc1cc2c(cc1OC)CN(CCc1ccc(NC(=O)c3cc(OC)c(OC)cc3NC(=O)c3cnc4ccccc4c3)cc1)CC2 showed a viability of 100. NC\1=N\C(=O)N(\C=C1)[C@@H]2O[C@H](CO)[C@@H](O)[C@@H]2O was tested, and the viability was 113. Work on CNC1CCCN(c2c(F)cc3c(=O)c(C(=O)O)cn(C4CC4)c3c2OC)C1 (stereo not given) yielded a viability of 121. Molecule CN(C)CCc1c[nH]c2ccc(C[C@H]3COC(=O)N3)cc12 has a viability of 106. CCCOc1ccc(C(=O)OCCN(CC)CC)cc1N showed a viability of 115. In the case of NC(=O)N1c2ccccc2CC(=O)c2ccccc21, the viability is reported as 111. COCC1(CO)C(=O)C2CCN1CC2 (stereo not given) gave a viability of 108. Molecule COc1cccc(OC)c1-c1cc(C(=O)NC2(C(=O)O)C3CC4CC(C3)CC2C4)nn1-c1ccnc2cc(Cl)ccc12 (stereo not given) has a viability of 124. Molecule O=C1NC(O)CCN1[C@@H]1O[C@H](CO)[C@@H](O)[C@H]1O (stereo not given in full) has a viability of 124. In the case of C[C@](O)(COc1ccc(C#N)cc1)C(=O)Nc1ccc(C#N)c(C(F)(F)F)c1, the viability is reported as 93.8. With CC(Cc1ccc(O)c(O)c1)(NN)C(=O)O (stereo not given) the viability was 96. COc1ccc(/C=C\c2cc(OC)c(OC)c(OC)c2)cc1O was tested, and the viability was 93.7. In the case of CN(Cc1cnc2nc(N)nc(N)c2n1)c1ccc(C(=O)N[C@@H](CCC(=O)O)C(=O)O)cc1, the viability is reported as 111. Work on c1cc(OCCN2CCCCC2)cc(-c2n[nH]c3ccc(-c4nc[nH]n4)cc23)c1 yielded a viability of 111. COc1ncnc(N[S+](=O)([O-])c2ccc(N)cc2)c1OC was tested, and the viability was 137. C[C@]12CCC3c4ccc(O)cc4CCC3C1CCC2=O (stereo not given in full) showed a viability of 94.8. NC(=O)Cc1cccc(C(=O)c2ccccc2)c1N was tested, and the viability was 112. In the case of Cc1ccc2c(=O)c3cccc(CC(=O)O)c3oc2c1C, the viability is reported as 6.71. Molecule COc1ccc(/C=C/C(=O)Nc2ccccc2C(=O)O)cc1OC has a viability of 106. With OCCC#Cc1nc(-c2ccc(F)cc2)c(-c2ccncc2)n1CCCc1ccccc1 the viability was 64. Molecule O=C(Oc1ccc([N+](=O)[O-])cc1)N1CCN(Cc2cccc(Oc3ccccc3)c2)CC1 has a viability of 63.7. O=C(CCN1CCN(C(=O)OCc2cc(Cl)cc(Cl)c2)CC1)c1ccc2[nH]c(=O)oc2c1 was tested, and the viability was 109. In the case of Oc1ccc2ccccc2c1SSc1c(O)ccc2ccccc12, the viability is reported as 129. In the case of C#Cc1cccc(Nc2ncnc3cc(OCCOC)c(OCCO)cc23)c1, the viability is reported as 47.5. COc1ccc(C(C)=O)c(O)c1 showed a viability of 103. Molecule Nc1nc2ccc(OC(F)(F)F)cc2s1 has a viability of 86.9. For CC(C)C(=O)Nc1ccc([N+](=O)[O-])c(C(F)(F)F)c1, the viability was 85.7. With NC\1=N\C(=O)N(\C=N1)[C@H]2C[C@H](O)[C@@H](CO)O2 the viability was 105. COC1=CC(=CC=C1)C2=CC=C(NC(=O)/C3=C(/CCC3)C(O)=O)C(=C2)F was tested, and the viability was 99.8. Work on CC/1=C/N([C@@H]2C[C@@H](O)[C@H](CO)O2)C(=O)NC1=O yielded a viability of 117. Molecule NCC1(CC(=O)O)CCCCC1 has a viability of 115. Molecule CC(C)OC(=O)C(C)(C)Oc1ccc(C(=O)c2ccc(Cl)cc2)cc1 has a viability of 117. O=C(NC1CCOCC1)c1ccc(-c2cc(-c3c[nH]nc3-c3ccccn3)ccn2)cc1 was tested, and the viability was 159. Molecule Nc1cc(c(cc1S(=O)(N)=O)S(N)(=O)=O)C(/Cl)=C(/Cl)Cl has a viability of 105. For COC1=NC(=NC(=C1N\C2=N\CCN2)Cl)C, the viability was 95.8. Molecule Clc1ccc(COC(Cn2ccnc2)c2ccc(Cl)cc2Cl)cc1 (stereo not given) has a viability of 117. CC1(C)CCC[C@]2(C)[C@H]3CC(=O)O[C@]3(C)CC[C@@H]12 gave a viability of 96. Cc1nnc(C(=O)NC(C)(C)c2nc(C(=O)NCc3ccc(F)cc3)c(O)c(=O)n2C)o1 was tested, and the viability was 124.
